Experiment [1] has as its system HBV. In words: Inhibition of HBV replication dot-blot assay in HBV-producing hepatoma cell line. Type of experiment: cell-based. The following applies: Hepatitis B virus, 144 h; activity in Dot-Blot assay; HepG2-2.2.15 cells; reduction in HBV DNA levels, six days. In short, it runs like this: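 HepG2-2.2.15 confluent monolayers were exposed to a compound dilution series for six days, with medium and compound renewed at day 3. HBV DNA in supernatant/lysate was quantified by dot-blot hybridization, and EC50 was derived from dose-response reduction in HBV DNA.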

In experiment [2] the test system is HBV. In words: HBV replication inhibition assay (encapsidated HBV DNA in supernatant, bDNA QuantiGene). The note with it: Hepatitis B virus, 144 h, HepG2.2.15 cells, supernatant at day 6, read-out: Extra HBV DNA. The format is cell-based.

As for `CS(=O)(=O)NC(=O)[C@H]1CC[C@@H](Sc2cc(C(=O)Nc3cc(F)c(F)c(F)c3)ccc2F)CC1` [Compound 100, 4-Fluoro-3-(((1S,4S)-4-((methylsulfonyl)carbamoyl)cyclohexyl)thio)-N-(3,4,5-trifluorophenyl)benzamide], the EC50 was less than 10 µM in the experiment with HBV [1] and 1.7 µM in the experiment on HBV [2].

Consider `O=C(Nc1ccc(F)c(Cl)c1)c1cccc(NS(=O)(=O)C2CC2)n1` [Compound 123, N-(3-Chloro-4-fluorophenyl)-6-(cyclopropanesulfonamido)picolinamide], for which the EC50 in the experiment with HBV [1] is less than 10 µM; with HBV [2], 3 µM.

As for `O=C(Nc1ccc(F)c(Cl)c1)c1ccnc(NS(=O)(=O)C2CC2)c1` [Compound 124, N-(3-Chloro-4-fluorophenyl)-2-(cyclopropanesulfonamido)isonicotinamide], the EC50 is less than 10 µM with HBV [1] and 0.1 µM with HBV [2].

As for `O=C(Nc1ccc(F)c(Cl)c1)c1cncc(NS(=O)(=O)C2CC2)c1` [Compound 125, N-(3-Chloro-4-fluorophenyl)-5-(cyclopropanesulfonamido)nicotinamide], the EC50 in the experiment with HBV [1] was less than 10 µM; with HBV [2] it was 2.1 µM.

On to `CCc1ccc(CS(=O)(=O)Nc2cc(C(=O)Nc3ccc(F)c(Cl)c3)ccn2)cc1` [Compound 180, N-(3-Chloro-4-fluorophenyl)-2-((4-ethylphenyl)methylsulfonamido)isonicotinamide], for which the EC50 with HBV [1] was less than 10 µM; in the experiment with HBV [2], 0.3 µM.

Turning to `CCc1ccc(CS(=O)(=O)Nc2cc(C(=O)Nc3ccc(F)c(F)c3)ccn2)cc1` [Compound 181, N-(3,4-Difluorophenyl)-2-((4-ethylphenyl)methylsulfonamido)isonicotinamide], the EC50 was less than 10 µM with HBV [1] and 0.7 µM with HBV [2].

For the origin of these results see patent EP3227262B1, “SULFIDE ALKYL AND PYRIDYL REVERSE SULFONAMIDE COMPOUNDS FOR HBV TREATMENT” (Novira Therapeutics Inc., priority 2014, dated 2016).
